# In article PMC6327993, “Synthesis carbonic anhydrase enzyme inhibition and antioxidant activity of novel benzothiazole derivatives incorporating glycine, methionine, alanine, and phenylalanine moieties” (Journal of Enzyme Inhibition and Medicinal Chemistry, 2018):
# Experiments:
# [1] = DPPH radical scavenging activity
# Procedure: Antioxidant activity was determined based on the ability of the antioxidants to act as radical scavengers towards the stable free radical, 1,1-diphenyl-2-picrylhydrazyl (DPPH). As detailed by Yang et al.[40], 1 ml of antioxidant solution (solubilised in ethanol) was added to 3 ml of a 0.1 mM ethanolic solution of DPPH. After 30 min at ambient temperature in darkness, absorbance readings were taken at 517 nm. Inhibition (%) was calculated using the equation [1–(As−Ao)/Ab]×100 where As is the absorbance reading for samples containing antioxidant, Ao is the absorbance of the antioxidant in pure methanol and Ab corresponded to the absorbance of the DPPH solution.
# hCA V = hCA V (Homo sapiens, UniProt P35218); assay: stopped flow CO2 hydrase assay, hCA V; assay type: biochemical; details: mean from three different assays, errors ±5–10%
# Sequence of hCA V (P35218 39-305): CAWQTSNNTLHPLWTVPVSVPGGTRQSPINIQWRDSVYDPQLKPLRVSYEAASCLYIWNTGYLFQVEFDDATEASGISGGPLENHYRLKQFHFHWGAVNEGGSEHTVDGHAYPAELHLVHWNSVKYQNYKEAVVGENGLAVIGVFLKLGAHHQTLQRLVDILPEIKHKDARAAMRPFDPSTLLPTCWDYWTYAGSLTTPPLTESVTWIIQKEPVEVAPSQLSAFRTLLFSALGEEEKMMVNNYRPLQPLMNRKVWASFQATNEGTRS
# Procedure: (§1) An applied photophysics stopped-flow instrument has been used for assaying the CA catalysed CO2 hydration activity by using method of Khalifah[34]. Phenol red (at a concentration of 0.2 mM) has been used as an indicator, working at the absorbance maximum of 557 nm, with 20 mM HEPES (pH 7.5) as buffer, and 20 mM Na2SO4 (for maintaining constant the ionic strength), following the initial rates of the CA-catalysed CO2 hydration reaction for a period of 10–100 s. The CO2 concentrations ranged from 1.7 to 17 mM for the determination of the kinetic parameters and inhibition constants. […] The uncatalysed rates were determined in the same manner and subtracted from the total observed rates. Stock solutions of inhibitor (0.1 mM) were prepared in distilled–deionised water and dilutions up to 0.01 nM were done thereafter with the assay buffer. Inhibitor and enzyme solutions were preincubated together for 15 min at room temperature prior to assay, in order to allow the formation of the E–I complex. The inhibition constants were obtained by non-linear least-square methods using PRISM (www.graphpad.com), and non-linear least squares methods, values representing the mean of at least three different determinations, as described earlier by us[35–39].
# hCA I = hCA I (Homo sapiens, UniProt P00915); assay: stopped flow CO2 hydrase assay, hCA I; assay type: biochemical; details: mean from three different assays, errors ±5–10%
# Sequence of hCA I (P00915 whole entry): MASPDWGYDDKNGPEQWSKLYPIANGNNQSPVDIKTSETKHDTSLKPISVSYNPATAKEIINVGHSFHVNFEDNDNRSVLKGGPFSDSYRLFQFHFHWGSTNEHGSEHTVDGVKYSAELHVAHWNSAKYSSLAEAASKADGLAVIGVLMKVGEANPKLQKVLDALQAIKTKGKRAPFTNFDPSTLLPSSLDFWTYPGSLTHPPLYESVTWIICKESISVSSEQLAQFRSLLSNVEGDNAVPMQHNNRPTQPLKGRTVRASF
# Procedure: as §1
# hCA XIII = hCA XIII (Homo sapiens, UniProt Q8N1Q1); assay: stopped flow CO2 hydrase assay, hCA XIII; assay type: biochemical; details: mean from three different assays, errors ±5–10%
# Sequence of hCA XIII (Q8N1Q1 whole entry): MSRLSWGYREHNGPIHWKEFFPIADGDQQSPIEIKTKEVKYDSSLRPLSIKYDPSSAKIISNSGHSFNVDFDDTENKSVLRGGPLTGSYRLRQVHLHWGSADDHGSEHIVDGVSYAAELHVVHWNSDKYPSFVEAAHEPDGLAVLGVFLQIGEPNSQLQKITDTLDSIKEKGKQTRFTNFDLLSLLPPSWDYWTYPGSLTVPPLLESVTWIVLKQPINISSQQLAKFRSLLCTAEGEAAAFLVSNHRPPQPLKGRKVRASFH
# Procedure: as §1
# hCA II = hCA II (Homo sapiens, UniProt P00918); assay: stopped flow CO2 hydrase assay, hCA II; assay type: biochemical; details: mean from three different assays, errors ±5–10%, read-out: KI hCAII
# Procedure: as §1
Ki (hCA V),Ki (hCA I),Ki (hCA XIII),melting point,Ki (hCA II),Compound,"Antioxidant activity, % ([1]; 12.5 μg/ml)","Antioxidant activity, % ([1]; 25 μg/ml)","Antioxidant activity, % ([1]; 37.5 μg/ml)","Antioxidant activity, % ([1]; 62.5 μg/ml)","Antioxidant activity, % ([1]; 125 μg/ml)"
,,,,,"COc1ccc(O)c(C(C)(C)C)c1 [BHA, reference compound]",61.1%,63.0%,67.5%,71.0%,72.4%
4.3 µM,4.3 µM,94.6 µM,213 to 214 °C,32.1 µM,Cc1ccc2nc(NC(=O)CNC(=O)OCc3ccccc3)sc2c1 [Compound 1],0%,0%,0%,11.4%,12.5%
65.5 µM,> 100 µM,> 100 µM,212 to 213 °C,74.8 µM,Cc1ccc2nc(NC(=O)CNC(=O)OC(C)(C)C)sc2c1 [Compound 2],0%,0%,3.9%,4.6%,6.1%
> 100 µM,> 100 µM,> 100 µM,214 to 215 °C,82.3 µM,CCOc1ccc2nc(NC(=O)CNC(=O)OCc3ccccc3)sc2c1 [Compound 5],12.0%,15.0%,25.0%,32.0%,38.0%
60 µM,> 100 µM,> 100 µM,171 to 172 °C,> 100 µM,CCOc1ccc2nc(NC(=O)CNC(=O)OC(C)(C)C)sc2c1 [Compound 7],13.0%,15.0%,22.5%,24.8%,28.3%
7.3 µM,71.9 µM,> 100 µM,220 to 221 °C,> 100 µM,"Cc1ccc2nc(NC(=O)CNC(=O)OCC3c4ccccc4-c4ccccc43)sc2c1 [Compound 9, (9H-Fluoren-9-yl)methyl (2-((6-methylbenzo[d]thiazol-2-yl)amino)-2-oxoethyl)carbamate]",4%,4.6%,5.3%,5.8%,6.4%
2.9 µM,7.1 µM,> 100 µM,,> 100 µM,"CS(=O)(=O)c1ccc2nc(NC(=O)CNC(=O)OCC3c4ccccc4-c4ccccc43)sc2c1 [Compound 10, (9H-Fluoren-9-yl)methyl(2-((6-(methylsulfonyl)benzo[d]thiazol-2-yl)amino)-2-oxoethyl)carbamate]",0%,0%,22.5%,23.1%,24.5%
74.5 µM,> 100 µM,> 100 µM,218 to 219 °C,88.1 µM,"Cc1cccc2sc(NC(=O)CNC(=O)OCC3c4ccccc4-c4ccccc43)nc12 [Compound 11, (9H-Fluoren-9-yl)methyl (2-((4-methylbenzo[d]thiazol-2-yl)amino)-2-oxoethyl)carbamate]",5%,6.7%,6.9%,7.1%,8.2%
> 100 µM,> 100 µM,> 100 µM,227 to 228 °C,37 µM,"Cc1ccc2nc(-c3ccc(NC(=O)C(Cc4ccccc4)NC(=O)OCc4ccccc4)cc3)sc2c1 (centres unmarked) [Compound 12, Benzyl (1-((4–(6-methylbenzo[d]thiazol-2-yl)phenyl)amino)-1-oxo-3-phenylpropan-2-yl)carbamate]",0%,3%,3.4%,5.8%,6.1%
41.2 µM,> 100 µM,84.9 µM,200 to 201 °C,39.1 µM,"CSCCC(NC(=O)OCc1ccccc1)C(=O)Nc1ccc(-c2nc3ccc(C)cc3s2)cc1 (centres unmarked) [Compound 13, Benzyl (1-((4–(6-methylbenzo[d]thiazol-2-yl)phenyl)amino)-4-(methylthio)-1-oxobutan-2-yl)carbamate]",5%,6.7%,6.1%,7.1%,8.2%
,,,,,"Cc1c(C)c2c(c(C)c1O)CC[C@@](C)(CCC[C@H](C)CCC[C@H](C)CCCC(C)C)O2 [α-Toc., α-tocopherol, reference compound]",62.9%,63.4%,68.4%,72.8%,74.0%
9 µM,89.9 µM,> 100 µM,,> 100 µM,Benzyl (3–(6-(methylsulfonyl)benzo[d]thiazol-2-yl)-2-oxopropyl)carbamate [Compound 8],0%,2.1%,6.6%,19.2%,20.7%
> 100 µM,> 100 µM,> 100 µM,,> 100 µM,Benzyl (4–(6-ethoxybenzo[d]thiazol-2-yl)-3-oxo-1-phenylbutan-2-yl)carbamate [Compound 6],11.0%,14.0%,23.0%,32.0%,37.0%
> 100 µM,> 100 µM,> 100 µM,,> 100 µM,Tert-butyl (4–(6-methylbenzo[d]thiazol-2-yl)-3-oxo-1-phenylbutan-2-yl)carbamate [Compound 4],0%,5.7%,5.8%,9.6%,
86.9 µM,90.5 µM,> 100 µM,,50.4 µM,Tert-butyl (4–(6-methylbenzo[d]thiazol-2-yl)-3-oxobutan-2-yl)carbamate [Compound 3],3.3%,3.4%,5.3%,7.5%,7.7%
